± gives the expanded uncertainty stated by the source.
Test: xn = mol fraction of the nth substance listed
Settings: 101 kPa, Liquid, Vibrating tube method

NCCN [ethane-1,2-diamine] + O
Settings | mass density [kg/m3]
274.15 K, x1 = 0.002 | 999.81 ± 0.5
274.15 K, x1 = 0.0033 | 999.71 ± 0.5
274.15 K, x1 = 0.0047 | 999.62 ± 0.5
274.15 K, x1 = 0.0072 | 999.47 ± 0.5
274.15 K, x1 = 0.009 | 999.38 ± 0.5
274.15 K, x1 = 0.0123 | 999.18 ± 0.5
274.15 K, x1 = 0.0222 | 998.88 ± 0.5
274.15 K, x1 = 0.0436 | 999.22 ± 0.5
274.15 K, x1 = 0.0609 | 1000.11 ± 0.5
274.15 K, x1 = 0.0827 | 1002.02 ± 0.5
275.15 K, x1 = 0.002 | 999.85 ± 0.5
275.15 K, x1 = 0.0033 | 999.74 ± 0.5
275.15 K, x1 = 0.0047 | 999.65 ± 0.5
275.15 K, x1 = 0.0072 | 999.48 ± 0.5
275.15 K, x1 = 0.009 | 999.37 ± 0.5
275.15 K, x1 = 0.0123 | 999.18 ± 0.5
275.15 K, x1 = 0.0222 | 998.82 ± 0.5
275.15 K, x1 = 0.0436 | 999.08 ± 0.5
275.15 K, x1 = 0.0609 | 999.93 ± 0.5
275.15 K, x1 = 0.0827 | 1001.75 ± 0.5
276.15 K, x1 = 0.002 | 999.87 ± 0.5
276.15 K, x1 = 0.0033 | 999.75 ± 0.5
276.15 K, x1 = 0.0047 | 999.66 ± 0.51
276.15 K, x1 = 0.0072 | 999.48 ± 0.5
276.15 K, x1 = 0.009 | 999.37 ± 0.5
276.15 K, x1 = 0.0123 | 999.16 ± 0.5
276.15 K, x1 = 0.0222 | 998.79 ± 0.5
276.15 K, x1 = 0.0436 | 998.93 ± 0.5
276.15 K, x1 = 0.0609 | 999.69 ± 0.5
276.15 K, x1 = 0.0827 | 1001.43 ± 0.5
277.15 K, x1 = 0.002 | 999.87 ± 0.5
277.15 K, x1 = 0.0033 | 999.75 ± 0.5
277.15 K, x1 = 0.0047 | 999.65 ± 0.5
277.15 K, x1 = 0.0072 | 999.47 ± 0.5
277.15 K, x1 = 0.009 | 999.35 ± 0.5
277.15 K, x1 = 0.0123 | 999.12 ± 0.5
277.15 K, x1 = 0.0222 | 998.71 ± 0.5
277.15 K, x1 = 0.0436 | 998.76 ± 0.5
277.15 K, x1 = 0.0609 | 999.54 ± 0.5
277.15 K, x1 = 0.0827 | 1001.13 ± 0.5
278.15 K, x1 = 0.002 | 999.85 ± 0.5
278.15 K, x1 = 0.0033 | 999.73 ± 0.5
278.15 K, x1 = 0.0047 | 999.62 ± 0.5
278.15 K, x1 = 0.0072 | 999.43 ± 0.5
278.15 K, x1 = 0.009 | 999.3 ± 0.5
278.15 K, x1 = 0.0123 | 999.07 ± 0.5
278.15 K, x1 = 0.0222 | 998.62 ± 0.5
278.15 K, x1 = 0.0436 | 998.59 ± 0.5
278.15 K, x1 = 0.0609 | 999.31 ± 0.5
278.15 K, x1 = 0.0827 | 1000.79 ± 0.5
278.15 K, x1 = 0.106 | 1002.72 ± 0.5
278.15 K, x1 = 0.1481 | 1006.44 ± 0.5
278.15 K, x1 = 0.2063 | 1009.32 ± 0.5
278.15 K, x1 = 0.2513 | 1008.93 ± 0.5
278.15 K, x1 = 0.3148 | 1002.73 ± 0.5
278.15 K, x1 = 0.3258 | 1002.11 ± 0.5
278.15 K, x1 = 0.3316 | 1001.85 ± 0.5
278.15 K, x1 = 0.341 | 1001.4 ± 0.5
278.15 K, x1 = 0.4038 | 992.34 ± 0.51
278.15 K, x1 = 0.4489 | 985.23 ± 0.51
278.15 K, x1 = 0.4928 | 977.8 ± 0.51
278.15 K, x1 = 0.5468 | 968.88 ± 0.51
278.15 K, x1 = 0.5907 | 961.76 ± 0.51
278.15 K, x1 = 0.6361 | 954.59 ± 0.51
278.15 K, x1 = 0.6843 | 947.87 ± 0.51
278.15 K, x1 = 0.7386 | 940.37 ± 0.51
278.15 K, x1 = 0.7954 | 933.17 ± 0.51
278.15 K, x1 = 0.81 | 931.24 ± 0.51
278.15 K, x1 = 0.8505 | 926.49 ± 0.51
278.15 K, x1 = 0.898 | 921.18 ± 0.51
278.15 K, x1 = 0.9282 | 917.97 ± 0.51
278.15 K, x1 = 0.9584 | 914.9 ± 0.51
278.15 K, x1 = 0.9678 | 913.98 ± 0.51
279.15 K, x1 = 0.002 | 999.82 ± 0.5
279.15 K, x1 = 0.0033 | 999.7 ± 0.5
279.15 K, x1 = 0.0047 | 999.59 ± 0.5
279.15 K, x1 = 0.0072 | 999.38 ± 0.5
279.15 K, x1 = 0.009 | 999.26 ± 0.5
279.15 K, x1 = 0.0123 | 999.01 ± 0.5
279.15 K, x1 = 0.0222 | 998.54 ± 0.5
279.15 K, x1 = 0.0436 | 998.41 ± 0.5
279.15 K, x1 = 0.0609 | 999.05 ± 0.5
279.15 K, x1 = 0.0827 | 1000.47 ± 0.5
280.15 K, x1 = 0.002 | 999.78 ± 0.5
280.15 K, x1 = 0.0033 | 999.65 ± 0.5
280.15 K, x1 = 0.0047 | 999.54 ± 0.5
280.15 K, x1 = 0.0072 | 999.33 ± 0.5
280.15 K, x1 = 0.009 | 999.2 ± 0.5
280.15 K, x1 = 0.0123 | 998.93 ± 0.5
280.15 K, x1 = 0.0222 | 998.41 ± 0.5
280.15 K, x1 = 0.0436 | 998.21 ± 0.5
280.15 K, x1 = 0.0609 | 998.8 ± 0.5
280.15 K, x1 = 0.0827 | 1000.14 ± 0.5
281.15 K, x1 = 0.002 | 999.72 ± 0.5
281.15 K, x1 = 0.0033 | 999.59 ± 0.5
281.15 K, x1 = 0.0047 | 999.47 ± 0.5
281.15 K, x1 = 0.0072 | 999.25 ± 0.5
281.15 K, x1 = 0.009 | 999.12 ± 0.5
281.15 K, x1 = 0.0123 | 998.84 ± 0.5
281.15 K, x1 = 0.0222 | 998.29 ± 0.5
281.15 K, x1 = 0.0436 | 998.03 ± 0.5
281.15 K, x1 = 0.0609 | 998.53 ± 0.5
281.15 K, x1 = 0.0827 | 999.78 ± 0.5
282.15 K, x1 = 0.002 | 999.65 ± 0.5
282.15 K, x1 = 0.0033 | 999.52 ± 0.5
282.15 K, x1 = 0.0047 | 999.39 ± 0.5
282.15 K, x1 = 0.0072 | 999.17 ± 0.5
282.15 K, x1 = 0.009 | 999.04 ± 0.5
282.15 K, x1 = 0.0123 | 998.74 ± 0.5
282.15 K, x1 = 0.0222 | 998.17 ± 0.5
282.15 K, x1 = 0.0436 | 997.81 ± 0.5
282.15 K, x1 = 0.0609 | 998.25 ± 0.5
282.15 K, x1 = 0.0827 | 999.43 ± 0.5
283.15 K, x1 = 0.002 | 999.56 ± 0.5
283.15 K, x1 = 0.0033 | 999.43 ± 0.5
283.15 K, x1 = 0.0047 | 999.3 ± 0.5
283.15 K, x1 = 0.0072 | 999.07 ± 0.5
283.15 K, x1 = 0.009 | 998.92 ± 0.5
283.15 K, x1 = 0.0123 | 998.62 ± 0.5
283.15 K, x1 = 0.0222 | 998.01 ± 0.5
283.15 K, x1 = 0.0436 | 997.6 ± 0.5
283.15 K, x1 = 0.0609 | 997.98 ± 0.5
283.15 K, x1 = 0.0827 | 999.09 ± 0.5
288.15 K, x1 = 0.002 | 998.94 ± 0.5
288.15 K, x1 = 0.0033 | 998.79 ± 0.5
288.15 K, x1 = 0.0047 | 998.64 ± 0.5
288.15 K, x1 = 0.0072 | 998.38 ± 0.5
288.15 K, x1 = 0.009 | 998.21 ± 0.5
288.15 K, x1 = 0.0123 | 997.87 ± 0.5
288.15 K, x1 = 0.0222 | 997.12 ± 0.5
288.15 K, x1 = 0.0436 | 996.36 ± 0.5
288.15 K, x1 = 0.0609 | 996.47 ± 0.5
288.15 K, x1 = 0.0827 | 997.2 ± 0.5
288.15 K, x1 = 0.106 | 998.37 ± 0.5
288.15 K, x1 = 0.1481 | 1000.83 ± 0.5
288.15 K, x1 = 0.2063 | 1002.48 ± 0.5
288.15 K, x1 = 0.2513 | 1001.08 ± 0.5
288.15 K, x1 = 0.3148 | 995 ± 0.5
288.15 K, x1 = 0.3316 | 993.72 ± 0.5
288.15 K, x1 = 0.341 | 992.78 ± 0.5
288.15 K, x1 = 0.4038 | 983.69 ± 0.51
288.15 K, x1 = 0.4489 | 976.15 ± 0.51
288.15 K, x1 = 0.4928 | 968.71 ± 0.51
288.15 K, x1 = 0.5468 | 959.92 ± 0.51
288.15 K, x1 = 0.5907 | 952.42 ± 0.51

Source: the NIST ThermoML archive (doi:10.1016/j.tca.2016.06.022)
